The record followed here is patent US10961215B2, “N-aryl and N-heteroaryl piperidine derivatives as liver X receptor beta agonists, compositions, and their use” (Merck Sharp & Dohme Corp., priority 2016, dated 2021).

Each structure is given as a SMILES string.

Assay [1] has as its target T1, GST tagged LXRbeta LBD (ligand binding domain) (Homo sapiens, UniProt P55055).
T1 construct: purchased Invitrogen pv4658.pps
T1 sequence (P55055 222-460 limits assumed): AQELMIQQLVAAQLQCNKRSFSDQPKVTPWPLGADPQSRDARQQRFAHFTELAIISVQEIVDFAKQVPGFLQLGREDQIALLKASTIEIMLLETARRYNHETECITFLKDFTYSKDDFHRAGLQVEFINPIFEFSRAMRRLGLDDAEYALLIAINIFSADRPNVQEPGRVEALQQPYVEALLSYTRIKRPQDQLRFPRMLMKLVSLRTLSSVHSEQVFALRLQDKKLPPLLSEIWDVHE
Put plainly: LanthaScreen TR-FRET Liver X Receptor Coactivator Assay, LXR beta-LBD (co-activator recruitment; IP and % Emax relative to T0901317). The format is biochemical. As to conditions: for EC50: Inflection Point of co-activator recruitment, LXR beta-LBD, TR-FRET; for Emax: efficacy at max dose in relation to reference T0901317, LXR beta-LBD, read-out: LXR beta actiivty at max dose (%). In outline:
(§1)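 Readout is time-resolved FRET between a terbium anti-GST antibody bound to the tagged LBD and a fluorescein-labelled coactivator peptide recruited on ligand binding. Samples are incubated at room temperature before reading, and efficacy is expressed against T0901317.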

The target in assay [2] is T2, GST tagged LXRalpha LBD (ligand binding domain) (Homo sapiens, UniProt Q13133).
T2 construct: purchased Invitrogen pv4655
T2 sequence (Q13133 209-447 limits assumed): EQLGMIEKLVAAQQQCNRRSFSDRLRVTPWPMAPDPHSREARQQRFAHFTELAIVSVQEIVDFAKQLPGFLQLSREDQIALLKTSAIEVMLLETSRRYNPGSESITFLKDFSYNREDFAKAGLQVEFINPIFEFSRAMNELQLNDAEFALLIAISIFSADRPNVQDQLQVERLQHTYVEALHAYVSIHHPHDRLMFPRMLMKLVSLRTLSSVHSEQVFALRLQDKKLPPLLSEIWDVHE
The assay can be described thus: LanthaScreen TR-FRET Liver X Receptor Coactivator Assay, LXR alpha-LBD (co-activator recruitment; IP and % Emax relative to T0901317). It is filed as biochemical. As to conditions: for LXR alpha IP (nM) / EC50: Inflection Point of co-activator recruitment, LXR alpha-LBD, TR-FRET; for Emax: efficacy at max dose in relation to reference T0901317, LXR alpha-LBD, read-out: LXR alpha actiivty at max dose (%). In outline: as §1

Take `CN(C)C(=O)c1ccc(N2CCC(CCCN(C)C(=O)[C@@](O)(c3cc(F)cc(Cl)c3)C(F)(F)F)CC2)nc1Cl` [Example 1-11, (S)-2-chloro-6-(4-(3-(2-(3-chloro-5-fluorophenyl)-3,3,3-trifluoro-2-hydroxy-N-methylpropanamido)propyl)piperidin-1-yl)-N,N-dimethylnicotinamide]: in assay [1], the 50% effective concentration (EC50) (as a rule, the midpoint of the concentration-response curve) stood at 0.453 µM and the Emax was 59%. Moreover, in assay [2], the “LXR alpha IP (nM)” value is recorded as “No IP” and the Emax came out at 0%.

For `CN(C)C(=O)c1ccc(N2CCC([C@H]3C[C@@H](N(C)C(=O)[C@](O)(c4cccc(C5CC5)c4)C(F)(F)F)C3)CC2)nc1Cl` [Example 17-2, cis-2-chloro-6-(4-(-3-((R)-2-(3-cyclopropylphenyl)-3,3,3-trifluoro-2-hydroxy-N-methylpropanamido)cyclobutyl)piperidin-1-yl)-N,N-dimethylnicotinamide], in assay [1], the EC50 was found to be 0.033 µM and the Emax was determined as 43%. In assay [2], the “LXR alpha IP (nM)” value is “No IP” and the Emax worked out at 10%.

Turning to `CCOc1cccc([C@@](O)(C(=O)NCCCC2CCN(c3ccc(C(=O)N(C)C)c(Cl)n3)CC2)C(F)(F)F)c1` [Example 5-10, (R)-2-chloro-6-(4-(3-(2-(3-ethoxyphenyl)-3,3,3-trifluoro-2-hydroxy-propanamido)propyl)piperidin-1-yl)-N,N-dimethylnicotinamide], in assay [1], the concentration for a half-maximal effect (EC50) was 0.343 µM and the Emax was determined as 58%. Moreover, in assay [2], the “LXR alpha IP (nM)” value is given as “No IP” and the Emax stood at 3%.

On to `CC(C)Oc1cccc(C(O)(C(=O)N(C)CCCC2CCN(c3ccc(C(=O)N(C)C)c(Cl)n3)CC2)C(F)(F)F)c1` (stereo not drawn) [Example 1-32, 2-chloro-N,N-dimethyl-6-(4-(3-(3,3,3-trifluoro-2-hydroxy-2-(3-isopropoxyphenyl)-N-methylpropanamido)propyl)piperidin-1-yl)nicotinamide], for which, in assay [1], the concentration giving a half-maximal response (EC50) was 0.095 µM and the Emax worked out at 48%. In addition, in assay [2], the “LXR alpha IP (nM)” value is “No IP” and the Emax is 0%.

`CN(C)C(=O)c1ccc(N2CCC(CCCN(C)C(=O)[C@](O)(c3cccc(OC(F)F)c3)C(F)(F)F)CC2)nc1Cl` [Example 1-51, (R)-2-chloro-6-(4-(3-(2-(3-(difluoromethoxy)phenyl)-3,3,3-trifluoro-2-hydroxy-N-methyl-propanamido)propyl)piperidin-1-yl)-N,N-dimethylnicotinamide]: in assay [1], the 50% effective concentration (EC50) stood at 0.546 µM and the Emax is 55%. Besides, in assay [2], the half-maximal effective concentration (EC50) amounted to 5.53 µM and the Emax worked out at 23%.

In the case of `CNC(=O)c1ccc(N2CCC([C@H]3C[C@H]3CNC(=O)[C@](O)(c3ccccc3)C(F)(F)F)CC2)nc1Cl` [Example 15-12, 2-chloro-N-methyl-6-(4-((1R,2R)-2-(((R)-3,3,3-trifluoro-2-hydroxy-2-phenylpropanamido)methyl)cyclopropyl)piperidin-1-yl)nicotinamide], in assay [1], the response was half-maximal at 1.33 µM (EC50) and the Emax was found to be 39%. For the same compound, in assay [2], the EC50 came to 3.78 µM and the Emax worked out at 29%.

Consider `CN(C)C(=O)c1ccc(N2CCC(C)(CCCN(C)C(=O)[C@](O)(c3cccc(OC(F)(F)F)c3)C(F)(F)F)CC2)nc1Cl` [Example 9-5, (R)-2-chloro-N,N-dimethyl-6-(4-methyl-4-(3-(3,3,3-trifluoro-2-hydroxy-N-methyl-2-(3-(trifluoromethoxy)phenyl)pro-panamido)propyl)piperidin-1-yl)nicotinamide], for which, in assay [1], the EC50 was determined as 0.043 µM and the Emax is 38%. In assay [2], the “LXR alpha IP (nM)” value is listed as “No IP” and the Emax turned out to be 0%.

Take `COc1cccc([C@@](O)(C(=O)N(C)CCCC2CCN(c3ccc(C(=O)N(C)C)c(Cl)c3)CC2)C(F)(F)F)c1` [Example 4-1, (R)-2-chloro-N,N-dimethyl-4-(4-(3-(3,3,3-trifluoro-2-hydroxy-2-(3-methoxyphenyl)-N-methylpropanamido)propyl)piperidin-1-yl)benzamide]: in assay [1], the midpoint of the response, the EC50, lay at 0.247 µM and the Emax is 59%. Besides, in assay [2], the “LXR alpha IP (nM)” value is listed as “No IP” and the Emax came to 8%.

Take `CC(C)[C@]1(C(=O)N(C)CCCC2CCN(c3ccc(C(=O)N(C)C)c(Cl)n3)CC2)CCCO1` [Example 1-19, (S)-2-chloro-6-(4-(3-(2-isopropyl-N-methyl-tetrahydrofuran-2-carboxamido)propyl)piperidin-1-yl)-N,N-dimethylnicotinamide]: in assay [1], the EC50 came out at 1.04 µM and the Emax was found to be 41%. Moreover, in assay [2], the response was half-maximal at 17.4 µM (EC50) and the Emax is 38%.

`CN[C@@](C(=O)N(C)CCCC1CCN(c2ccc(C(=O)N(C)C)c(Cl)n2)CC1)(c1cccc(OC)c1)C(F)(F)F` [Example 1-57, (R)-2-chloro-N,N-dimethyl-6-(4-(3-(3,3,3-trifluoro-2-(3-methoxyphenyl)-N-methyl-2-(methylamino)propanamido)propyl)piperidin-1-yl)nicotinamide]: in assay [1], the EC50 stood at 0.268 µM and the Emax is 48%. Moreover, in assay [2], the “LXR alpha IP (nM)” value is given as “No IP” and the Emax is 0%.

Take `CN(C)C(=O)c1ccc(N2CCC(CCCN(C)C(=O)[C@](O)(c3cccc(C(F)(F)F)c3)C(F)(F)F)CC2)nc1Cl` [Example 1-49, (R)-2-chloro-N,N-dimethyl-6-(4-(3-(3,3,3-trifluoro-2-hydroxy-N-methyl-2-(3-(trifluoromethyl)phenyl)pro-panamido)propyl)piperidin-1-yl)nicotinamide]: in assay [1], the 50% effective concentration (EC50) came out at 0.054 µM and the Emax came to 50%. In assay [2], the “LXR alpha IP (nM)” value is “No IP” and the Emax worked out at 0%.

As to `COc1cccc([C@@](O)(C(=O)N[C@@H](C)CCC2CCN(c3ccc(C(=O)N(C)C)c(Cl)n3)CC2)C(F)(F)F)c1` [Example 6-1, 2-chloro-N,N-dimethyl-6-(4-((S)-3-((R)-3,3,3-trifluoro-2-hydroxy-2-(3-methoxyphenyl)propanamido)butyl)piperidin-1-yl)nicotinamide], in assay [1], the EC50 turned out to be 0.379 µM and the Emax is 25%. Further, in assay [2], the “LXR alpha IP (nM)” value was “No IP” and the Emax stood at 0%.

For the compound `COc1cccc([C@](O)(C(=O)N(C)CCCC2CCN(c3ccc(C(=O)N(C)C)c(Cl)n3)CC2)C(F)F)c1` [Example 1-13, (S)-2-chloro-6-(4-(3-(3,3-difluoro-2-hydroxy-2-(3-methoxyphenyl)-N-methylpropanamido)propyl)piperidin-1-yl)-N,N-dimethylnicotinamide], in assay [1], the concentration giving a half-maximal response (EC50) was 0.148 µM and the Emax is 63%. In assay [2], the “LXR alpha IP (nM)” value is on record as “No IP” and the Emax was 0%.

`COc1cccc([C@@](O)(C(=O)N(C)CCCC2CCN(c3ccc(C(=O)N(C)CCn4cncn4)c(Cl)n3)CC2)C(F)(F)F)c1` [Example 2-14]: in assay [1], the EC50 was 0.083 µM and the Emax was 67%. In assay [2], the “LXR alpha IP (nM)” value is “No IP” and the Emax turned out to be 14%.

As for `COc1cccc([C@@](O)(C(=O)NC[C@@H](F)CC2CCN(c3ccc(C(=O)N(C)C)c(Cl)n3)CC2)C(F)(F)F)c1` [Example 3-6], in assay [1], it took 0.961 µM to reach a half-maximal effect (EC50) and the Emax came out at 38%. In addition, in assay [2], the “LXR alpha IP (nM)” value is reported as “No IP” and the Emax was 7%.
